Measurements as given in publication PMC6994497, “Structural basis for Glycan-receptor binding by mumps virus hemagglutinin-neuraminidase” (Scientific Reports, 2020).

Molecular target: T1, MuV-HN (Mumps orthorubulavirus, UniProt Q9WAF5)
T1 construct: pHLsec N-terminal secretion signal, C-terminal His6 tag; secreted from HEK293S GnTI(-) cells; Ni-NTA and size exclusion
Assay: STD NMR
Assay type: binding
Conditions: deuterated phosphate buffer pH 7.4; reaction mixture after hydrolysis of 1, also free reducing sialic acid

T1 sequence (Q9WAF5 96-582): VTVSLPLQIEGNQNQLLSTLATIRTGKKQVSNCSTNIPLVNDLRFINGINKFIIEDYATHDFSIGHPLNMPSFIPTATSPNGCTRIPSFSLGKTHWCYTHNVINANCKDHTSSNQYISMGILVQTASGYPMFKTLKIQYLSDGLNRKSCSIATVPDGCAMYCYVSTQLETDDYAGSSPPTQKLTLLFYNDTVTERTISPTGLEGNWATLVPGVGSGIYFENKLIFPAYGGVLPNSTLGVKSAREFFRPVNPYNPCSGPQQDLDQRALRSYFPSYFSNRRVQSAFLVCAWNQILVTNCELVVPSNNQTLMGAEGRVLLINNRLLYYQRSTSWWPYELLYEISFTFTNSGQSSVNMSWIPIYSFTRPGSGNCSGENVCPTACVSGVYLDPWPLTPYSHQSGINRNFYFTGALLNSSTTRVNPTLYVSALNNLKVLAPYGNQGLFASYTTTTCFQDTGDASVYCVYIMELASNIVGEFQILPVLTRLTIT

## CC(=O)N[C@H]1[C@H]([C@H](O)[C@H](O)CO)OC(O)(C(=O)O)C[C@@H]1O (stereo partly shown) [reducing Sia]
  STD NMR: the protein was able to bind the reducing sialic acid produced during the hydrolysis reaction
